Measurements reported in patent US20220387365A1, “TUCARESOL DERIVATIVES AND USES THEREOF” (BeyondSpring Pharmaceuticals, Inc., priority 2019, published 2022).

What was measured:
[1] = Body weight in MC38 model (Example 10); format: in vivo; conditions: for Mean Body Weight: in g (unit assumed)
Protocol: (§1) After tumor cell inoculation, the animals were checked daily for morbidity and mortality. During routine monitoring, the animals were checked for any effects of tumor growth and treatments on behavior such as mobility, food and water consumption, body weight gain/loss (Body weights were measured three times a week after randomization), eye/hair matting and any other abnormalities. Mortality and observed clinical signs were recorded for individual animals in detail.
Tumor volumes were measured three times a week after randomization in two dimensions using a caliper, and the volume was expressed in mm^3 using the formula: V=(L×W×W)/2, where V is tumor volume, L is tumor length (the longest tumor dimension) and W is tumor width (the longest tumor dimension perpendicular to L). Dosing as well as tumor and body weight measurements were conducted in a Laminar Flow Cabinet. The body weights and tumor volumes were measured by using StudyDirector™ software (version 3.1.399.19).
After one measurement of body weight loss (BWL)>20% or BWL>15% for consecutive 72 hours, the individual mouse was sacrificed. BWL was calculated based on the BW of mouse on the first day of treatment. After one measurement of BWL>15%, dosing holidays were given to the individual mouse with BWL>15% which was housed in a separate cage alone with daily monitoring for 72 hours, while other mice in the same group would receive dosing as scheduled., treatment was resumed when the BWL has recovered to BWL<10%. Supplemental gel was supplied to all the animals in the study on day 5 to day 15 upon sponsor's request.
The body weight of all animals was monitored throughout the study and animals were euthanized if they lost over 15% of their body weight relative to the weight at the first day of treatment for 3 consecutive days, or lose over 20% of their body weight relative to the weight at the first day of treatment.

Hepa 1-6 tumor cells = test: In vivo efficacy in subcutaneous Hepa 1-6 mouse liver cancer model; set-up: species or system C57BL/6 mice; conditions: p.o.
Protocol: The study evaluated preclinically in vivo therapeutic efficacy of tucaresol and Compound C02 as a single agent in the treatment of subcutaneous Hepa 1-6 liver cancer models in C57BL/6 mice.
Cell Culture: The Hepa 1-6 tumor cells were maintained in vitro as a monolayer culture in DMEM medium supplemented with 10% fetal bovine serum at 37° C. in an atmosphere of 5% CO2 in air. The cells in an exponential growth phase were harvested and counted for tumor inoculation.
Tumor Inoculation: Each C57BL/6 mouse was subcutaneously inoculated at the right flank with Hepa 1-6 tumor cells (5×10^6) in 0.1 ml of PBS for tumor development. The date of tumor cell inoculation was denoted as day 0.
Randomization: The randomization started when the mean tumor size reached approximately 100-150 mm^3 in each model. […]
as §1, with “gain/loss (body” for “gain/loss (Body”, “weights will be” for “weights were”, “measured twice per” for “measured three times a”, “detail. […]” for “detail.”
Tumor growth inhibition (TGI): TGI % is an indication of antitumor activity, and expressed as: TGI (%)=100×(1−T/C). […]

For `O=Cc1c(OCc2ccc(C(=O)O)cc2)cccc1OC1O[C@H](CO)[C@@H](O)[C@H](O)[C@H]1O` (some centres unmarked) [Compound C02], the “weight loss (in words)” value ([1]; 20 mg/kg, PO, QDx5 (day 1-5), as a monotherapy or in combination with anti-PD1) was “not associated with weight loss”, the “Mean Body Weight” value ([1]; Day 1, Group 02: C02 20 mg/kg p.o. QD × 5 (day 1~5) + Rat IgG2a 10 mg/kg i.p. BIW) was 18.9 ± 0.2 and the “Mean Body Weight” value ([1]; Day 1, Group 04: C02 20 mg/kg p.o. QD × 5 (day 1~5) in combination with PD-1 (RMP 1-14) 10 mg/kg i.p. BIW × 6 doses) was 19.2 ± 0.2. For the same compound, the “Mean Body Weight” value ([1]; Day 4, Group 02: C02 20 mg/kg p.o. QD × 5 (day 1~5) + Rat IgG2a 10 mg/kg i.p. BIW) was 19.2 ± 0.2, the “Mean Body Weight” value ([1]; Day 4, Group 04: C02 20 mg/kg p.o. QD × 5 (day 1~5) in combination with PD-1 (RMP 1-14) 10 mg/kg i.p. BIW × 6 doses) was 19.3 ± 0.2 and the “Mean Body Weight” value ([1]; Day 8, Group 02: C02 20 mg/kg p.o. QD × 5 (day 1~5) + Rat IgG2a 10 mg/kg i.p. BIW) was 19.6 ± 0.2. For the same compound, the “Mean Body Weight” value ([1]; Day 8, Group 04: C02 20 mg/kg p.o. QD × 5 (day 1~5) in combination with PD-1 (RMP 1-14) 10 mg/kg i.p. BIW × 6 doses) was 19.9 ± 0.1, the “Mean Body Weight” value ([1]; Day 10, Group 02: C02 20 mg/kg p.o. QD × 5 (day 1~5) + Rat IgG2a 10 mg/kg i.p. BIW) was 20 ± 0.3 and the “Mean Body Weight” value ([1]; Day 10, Group 04: C02 20 mg/kg p.o. QD × 5 (day 1~5) in combination with PD-1 (RMP 1-14) 10 mg/kg i.p. BIW × 6 doses) was 20.3 ± 0.2. For the same compound, the “Mean Body Weight” value ([1]; Day 12, Group 02: C02 20 mg/kg p.o. QD × 5 (day 1~5) + Rat IgG2a 10 mg/kg i.p. BIW) was 20.6 ± 0.4, the “Mean Body Weight” value ([1]; Day 12, Group 04: C02 20 mg/kg p.o. QD × 5 (day 1~5) in combination with PD-1 (RMP 1-14) 10 mg/kg i.p. BIW × 6 doses) was 21 ± 0.2 and the “Mean Body Weight” value ([1]; Day 15, Group 02: C02 20 mg/kg p.o. QD × 5 (day 1~5) + Rat IgG2a 10 mg/kg i.p. BIW) was 22.3 ± 0.5. The “Mean Body Weight” value ([1]; Day 15, Group 04: C02 20 mg/kg p.o. QD × 5 (day 1~5) in combination with PD-1 (RMP 1-14) 10 mg/kg i.p. BIW × 6 doses) was 21.9 ± 0.4 and the “efficacy of once a day for five days (QD×5) against every-other-day administration” value (Hepa 1-6 tumor cells) was “greater efficacy than every-other-day administration”.
